Data as given in patent publication US8618088B2, “Methods of inhibiting choroidal neovascularization” (University of Pennsylvania, priority 2002, dated 2013).

Columns and labels:
Solubility in water = type: physicochemical
[1] = system: choroidal neovascularization (CNV); experiment: Matrigel subretinal injection model of choroidal neovascularization (CNV), Vessel Paint staining and fluorescence microscopy; type: in vivo, Sprague-Dawley rats
Procedure: In search of effective treatments for CNV, a simple animal model was created by injecting 2-3µl Matrigel™ to the subretinal space of adult Sprague-Dawley rats using a 33-gauge needle connected to a 10µl Hamilton microsyringe. A week or more later the animals were sacrificed by CO2 inhalation and perfused with Vessel Paint, a new visualization technique recently developed in the inventors' lab that enables screening agents, including chemical compounds and proteins, for their potential in inhibiting CNV (Wen, ARVO Abstract, March 2002). Vessel Painting comprises the use of a solution containing DiI, followed by 4% paraformaldehyde solution, and is discussed further below.
The anterior portion of the eye, including the cornea and lens, was removed, and the eyecup was imbedded in 5% agarose. […] Eye sections were examined by fluorescence microscopy for neovascularization in the Matrigel™ deposit. […] Protein leakage of the new vessels was detected by assessing color change in the Matrigel™ deposit after intravenous injection of Evan's Blue dye. […]
Adult Sprague-Dawley rats (n=22) were injected with Matrigel™ to the subretinal space. […] Tissue sections were examined by fluorescence microscopy. […]
Eyes were collected 10 days after injection and blood vessels were stained with Vessel Paint. […] CNV was examined by fluorescence microscopy and CNV index of each eye was calculated.

| solubility in water (Solubility in water) | effect on the normal vasculature of the eye ([1]; all experiments) | Structure (SMILES) | CNV index (mean) ([1]; suspension in Matrigel 10 μg/μl, 1.2 μl subretinal, 10 days after injection) |
| --- | --- | --- | --- |
| not soluble in water | no discernable effect | CO[C@H]1C[C@@H]2CC[C@@H](C)[C@@](O)(O2)C(=O)C(=O)N2CCCC[C@H]2C(=O)O[C@H]([C@H](C)C[C@@H]2CC[C@@H](O)[C@H](OC)C2)CC(=O)[C@H](C)/C=C(\C)[C@@H](O)[C@@H](OC)C(=O)[C@H](C)C[C@H](C)/C=C/C=C/C=C/1C [rapamycin] | – |
| not water soluble | – | C=CC[C@@H]1/C=C(\C)C[C@H](C)C[C@H](OC)[C@H]2O[C@@](O)(C(=O)C(=O)N3CCCC[C@H]3C(=O)O[C@H](/C(C)=C/[C@@H]3CC[C@@H](O)[C@H](OC)C3)[C@H](C)[C@@H](O)CC1=O)[C@H](C)C[C@@H]2OC [FK506] | Mean = 12.67 (n = 6) |
